The record followed here is PubChem BioAssay (NCI).

Some test systems named below: TK-10 renal; HCT-15 colon; NCI-H23 lung; SF-539 CNS; ACHN renal; SNB-19 CNS; MCF7 breast; HL-60(TB) leukemia; OVCAR-4 ovarian; OVCAR-5 ovarian.
Holding throughout (experiment): inhibition of tumour cell growth, NCI panel, 48 h

The structures appear in SMILES notation. “And” between values parts separate entries of the source, which are not always exact repeats. Equal values may be shown once.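 These data come from cells grown in 96-well plates and exposed to compound for 48 hours at five concentrations. The concentration for 50% growth inhibition is given as GI50. TGI is the concentration that stops growth completely.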 A value given as a limit tells only on which side of the number the result lay.

Regarding `CO[C@@H]1/C=C(C)/C=C/[C@@H](C)/C=C(\C)C(=O)OC(/C(C)=C/C=C(\C)CNC(=O)[C@H](CO)NC=O)[C@@H](C)/C=C/C=C/[C@H](OC)CC/C=C(C)/C=C/C1` (stereo not given in full), the GI50 with TK-10 renal was below 0.005 µM; with HCT-15 colon, 0.0225 µM; in the test with NCI-H23 lung, below 0.005 µM; in the test on SF-539 CNS it was below 0.005 µM; in the test on ACHN renal, 0.00904 µM; in the test with SNB-19 CNS, 0.303 µM. For the same compound, the GI50 was below 0.005 µM with MCF7 breast, below 0.005 µM with HL-60(TB) leukemia, below 0.005 µM in the test on OVCAR-4 ovarian and 0.178 µM in the test with OVCAR-5 ovarian. Also, the TGI in the test with TK-10 renal came out at 0.236 µM; with HCT-15 colon, 6.88 µM; in the test with NCI-H23 lung, 0.266 µM; with SF-539 CNS it was 0.199 µM; in the test on ACHN renal, 0.187 µM; with SNB-19 CNS, 9.12 µM. Further, the TGI was 9.14 µM in the test on MCF7 breast, above 50 µM with HL-60(TB) leukemia, above 50 µM in the test with OVCAR-4 ovarian and 12.5 µM with OVCAR-5 ovarian.
Consider `COc1cc2c[n+](C)c3c4ccccc4ccc3c2cc1OC` (tested in a mixture with another compound), for which the TGI in the test on TK-10 renal is 87.3 µM; with HCT-15 colon, above 100 µM; in the test with NCI-H23 lung it was 31.7 µM; in the test on SF-539 CNS it was 5.65 µM and 25 µM; with ACHN renal, above 100 µM; in the test on SNB-19 CNS, 25.1 µM. Besides, the results for the TGI in the test on HL-60(TB) leukemia, in the test on OVCAR-4 ovarian and with OVCAR-5 ovarian were above 84.2 µM, 43.2 µM and 52.7 µM, respectively. The GI50 is 1.54 µM in the test on SF-539 CNS; 0.964 µM in the test on SNB-19 CNS; 19.8 µM with MCF7 breast; 4.56 µM in the test with HL-60(TB) leukemia; 4.04 µM in the test with OVCAR-4 ovarian; 4.67 µM with OVCAR-5 ovarian.
For `c1ccc(-n2nnnc2-c2cccc3ccccc23)cc1`, the GI50 in the test with TK-10 renal is 1.45 µM; in the test on HCT-15 colon, 0.348 µM; with NCI-H23 lung it was 1.28 µM; with SF-539 CNS it was 0.445 µM; in the test with ACHN renal, 0.84 µM; in the test on SNB-19 CNS, 0.859 µM. Also, the GI50 in the test on MCF7 breast is 0.562 µM; in the test with HL-60(TB) leukemia, 0.365 µM; in the test on OVCAR-4 ovarian, 11.4 µM; with OVCAR-5 ovarian it was 3.27 µM. Moreover, the TGI in the test with TK-10 renal was above 100 µM; with HCT-15 colon, above 100 µM; with NCI-H23 lung, above 100 µM; in the test with SF-539 CNS, 3.43 µM; in the test on ACHN renal, above 100 µM; with SNB-19 CNS, above 100 µM. In addition, the TGI was above 100 µM in the test on MCF7 breast, 1.7 µM with HL-60(TB) leukemia, above 100 µM in the test on OVCAR-4 ovarian and above 100 µM with OVCAR-5 ovarian.
With `O=C(O)c1cc(N=Cc2ccccc2O)cc(C(=O)O)c1`, the TGI in the test with TK-10 renal, with HCT-15 colon, in the test on NCI-H23 lung, with SF-539 CNS, with ACHN renal and with SNB-19 CNS was above 100 µM throughout. Further, the TGI in the test on MCF7 breast, with HL-60(TB) leukemia, in the test on OVCAR-4 ovarian and in the test with OVCAR-5 ovarian was above 100 µM throughout.
As to `Cc1cc(C)c(O)c(CN(C)Cc2cc(Cl)cc(Cl)c2O)c1`, the GI50 in the test with TK-10 renal was 4.95 µM; in the test with HCT-15 colon, 3.41 µM; with NCI-H23 lung it was 3.91 µM; in the test on SF-539 CNS, 6.43 µM; in the test on ACHN renal, 4.73 µM; in the test on SNB-19 CNS, 4.82 µM. Further, the GI50 with MCF7 breast is 3.28 µM; with HL-60(TB) leukemia, 4 µM; with OVCAR-4 ovarian, 2.62 µM; with OVCAR-5 ovarian, 6.12 µM. In addition, the TGI in the test with TK-10 renal amounted to 25.6 µM; in the test on HCT-15 colon it was 16.8 µM; in the test with NCI-H23 lung it was 17.3 µM; with SF-539 CNS it was 25.1 µM; in the test on ACHN renal, 24 µM; in the test with SNB-19 CNS it was 20.8 µM. Further, the TGI with MCF7 breast was found to be 14.3 µM; in the test on HL-60(TB) leukemia it was 33 µM; with OVCAR-4 ovarian, 10.6 µM; in the test on OVCAR-5 ovarian, 20.5 µM.
Turning to `COC(=O)[C@]12CC[C@@H](C)[C@H](C)[C@@H]1C1=CC[C@@H]3[C@@]4(C)C=C(O)C(=O)[C@@]5(C)COC(=C54)C[C@@]3(C)[C@]1(C)CC2`, the GI50 with TK-10 renal is 12.5 µM; in the test on HCT-15 colon, 11.6 µM; in the test with NCI-H23 lung, 4.19 µM; in the test on SF-539 CNS, 18.4 µM; in the test with ACHN renal, 11.7 µM; in the test on SNB-19 CNS, 15.8 µM. In addition, the GI50 is 3.45 µM in the test with MCF7 breast, 4.17 µM in the test on HL-60(TB) leukemia, 8.32 µM in the test with OVCAR-4 ovarian and 20.9 µM with OVCAR-5 ovarian. For the same compound, the TGI in the test on TK-10 renal is 29.8 µM; with HCT-15 colon, 26.6 µM; with NCI-H23 lung it was 18.2 µM; in the test on SF-539 CNS it was 44.3 µM; with ACHN renal, 28.7 µM; with SNB-19 CNS, 37.9 µM. Moreover, the TGI in the test on MCF7 breast was determined as 12.3 µM; in the test on HL-60(TB) leukemia it was 19.9 µM; with OVCAR-4 ovarian it was 23.5 µM; with OVCAR-5 ovarian, 49.6 µM.
`C#Cc1c(C(N)=O)ncn1C1OC(COP(=O)(OCc2ccc([N+](=O)[O-])o2)N(C)CCCCCl)C(O)C1O` (stereo not given): the GI50 with TK-10 renal is 43.1 µM; with HCT-15 colon, 31.3 µM; in the test on NCI-H23 lung, 5.99 µM; in the test on SF-539 CNS, 19.7 µM; with ACHN renal, 45 µM; in the test on SNB-19 CNS it was 51.7 µM. In addition, the GI50 in the test with MCF7 breast is 20.1 µM; in the test on HL-60(TB) leukemia it was above 100 µM; in the test on OVCAR-4 ovarian it was above 100 µM; with OVCAR-5 ovarian it was 16.2 µM. The TGI with TK-10 renal is above 100 µM; with HCT-15 colon it was above 100 µM; in the test on NCI-H23 lung, 73.6 µM; with SF-539 CNS, above 100 µM; in the test with ACHN renal, above 100 µM; in the test with SNB-19 CNS, above 100 µM. Further, the TGI with MCF7 breast, in the test with HL-60(TB) leukemia, with OVCAR-4 ovarian and in the test on OVCAR-5 ovarian was above 100 µM in each case.
In the case of `O=C(c1ccco1)c1c(C(F)(F)F)n([O-])c2ccccc2[n+]1=O`, the GI50 was 1.49 µM in the test on TK-10 renal; 0.785 µM in the test with HCT-15 colon; 1.21 µM in the test on NCI-H23 lung; 0.28 µM in the test on SF-539 CNS; 0.506 µM in the test with ACHN renal; 3.34 µM with SNB-19 CNS. Moreover, the GI50 in the test with MCF7 breast was 0.458 µM; with HL-60(TB) leukemia, 0.175 µM; in the test on OVCAR-4 ovarian, 5.45 µM; in the test on OVCAR-5 ovarian, 3.68 µM. Moreover, the TGI with TK-10 renal stood at 6.7 µM; in the test with HCT-15 colon, 3.85 µM; in the test on NCI-H23 lung it was 7.26 µM; in the test with SF-539 CNS, 0.712 µM; in the test on ACHN renal, 4.21 µM; with SNB-19 CNS, 22.3 µM. Further, the TGI with MCF7 breast stood at 7.36 µM; with HL-60(TB) leukemia, 1.42 µM; with OVCAR-4 ovarian it was 15.4 µM; in the test on OVCAR-5 ovarian, 13.4 µM.
